The record followed here is PubChem BioAssay (NCI).

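Grown in 96-well plates, cells were treated for 48 hours with each compound at five concentrations. Insufficient inhibition: endpoint recorded as highest concentration tested. At the GI50, growth is halved. TGI is the concentration that stops growth completely.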

Test systems include DU-145 prostate; HS 578T breast; K-562 leukemia; MDA-MB-435; NCI-H226 lung; NCI/ADR-RES ovarian; OVCAR-3 ovarian; SN12C renal; SNB-19 CNS; U251 CNS.
Holding throughout (assay): growth of human tumour cells (NCI), 48 h

For `NCCCCN(Cc1nc2ccccc2[nH]1)[C@H]1CCCc2cccnc21`, the GI50 was 29.2 µM in the assay with DU-145 prostate; 19 µM with HS 578T breast; 12.6 µM with K-562 leukemia; 17.4 µM with MDA-MB-435; 12.5 µM in the assay with NCI-H226 lung; 26.8 µM with NCI/ADR-RES ovarian. The GI50 in the assay on OVCAR-3 ovarian was 15.3 µM; in the assay on SN12C renal, 14.9 µM; in the assay on SNB-19 CNS, 26.9 µM; in the assay with U251 CNS, 11.3 µM. Further, the TGI is above 100 µM in the assay on DU-145 prostate; above 91.4 µM in the assay on HS 578T breast; 43.3 µM in the assay on K-562 leukemia; 54.6 µM with MDA-MB-435; 44.4 µM with NCI-H226 lung; above 100 µM in the assay on NCI/ADR-RES ovarian. The TGI in the assay with OVCAR-3 ovarian was above 100 µM; in the assay with SN12C renal, above 100 µM; in the assay on SNB-19 CNS, above 100 µM; in the assay with U251 CNS, above 67.8 µM.
In the case of `CC(C)CCc1c(Cl)nc(Cl)nc1Cl`, the TGI in the assay on DU-145 prostate is 31.1 µM; in the assay on HS 578T breast it was 56.8 µM; with K-562 leukemia it was above 100 µM; in the assay with MDA-MB-435 it was 32.2 µM; in the assay on NCI-H226 lung, 14.6 µM; with NCI/ADR-RES ovarian, above 100 µM. The TGI amounted to 24.3 µM in the assay with OVCAR-3 ovarian, 57.9 µM in the assay on SN12C renal, 39 µM in the assay with SNB-19 CNS and 24.4 µM with U251 CNS.
For the molecule `C=C1C(=O)O[C@H]2[C@H]1CC/C(CNS(=O)(=O)c1cccc3ccccc13)=C\CC[C@@]1(C)O[C@@H]21`, the GI50 in the assay on DU-145 prostate was 1.11 µM; in the assay on HS 578T breast, 3.46 µM; in the assay with MDA-MB-435, 1.6 µM; in the assay on NCI-H226 lung it was 13.2 µM; in the assay on NCI/ADR-RES ovarian it was 5.08 µM; in the assay on OVCAR-3 ovarian it was 1.16 µM. For the same molecule, the results for the GI50 in the assay with SN12C renal, in the assay with SNB-19 CNS and in the assay on U251 CNS were 2.12 µM, 5.44 µM and 3.67 µM, respectively. Also, the TGI with DU-145 prostate was found to be 2.43 µM; in the assay on HS 578T breast, 18.4 µM; in the assay with MDA-MB-435 it was 3.42 µM; in the assay with NCI-H226 lung it was 33 µM; in the assay with NCI/ADR-RES ovarian, 20.6 µM; in the assay on OVCAR-3 ovarian, 2.48 µM. Besides, the TGI in the assay on SN12C renal worked out at 7.74 µM; with SNB-19 CNS, 19.8 µM; with U251 CNS, 15.3 µM.
For the molecule `Clc1nc(Cl)c(Cc2ccccc2)c(Cl)n1`, the TGI in the assay on DU-145 prostate is 28.7 µM; with HS 578T breast, 19.9 µM; in the assay with K-562 leukemia, above 100 µM; in the assay on MDA-MB-435, 19 µM; in the assay on NCI-H226 lung, 32.4 µM; with NCI/ADR-RES ovarian, above 100 µM. In addition, the TGI in the assay with OVCAR-3 ovarian is 9.16 µM; in the assay with SN12C renal, 32 µM; with SNB-19 CNS it was 33.3 µM; in the assay on U251 CNS it was 33.8 µM.
Turning to `O=C1C(=O)c2ccccc2C(O)=C1CCCCCCCCC1CCCCC1`, the TGI in the assay on DU-145 prostate turned out to be 33.4 µM; with HS 578T breast, 39.6 µM; with K-562 leukemia it was 12.1 µM; in the assay on MDA-MB-435, 17.2 µM; in the assay on NCI/ADR-RES ovarian it was 25.3 µM; in the assay on OVCAR-3 ovarian it was 26.5 µM. Further, the TGI is 22.3 µM in the assay with SN12C renal, 25.1 µM in the assay on SNB-19 CNS and 17.8 µM in the assay with U251 CNS.
On to `OC(CNC1CCCC1)Cn1c2ccccc2c2ccccc21` (stereo unspecified), for which the GI50 in the assay on DU-145 prostate is 82.3 µM; with HS 578T breast, 21.8 µM; in the assay on K-562 leukemia, above 100 µM; in the assay on MDA-MB-435, above 100 µM; in the assay on NCI-H226 lung, 32.1 µM; in the assay with NCI/ADR-RES ovarian, 40.6 µM. Also, the GI50 is 51.3 µM with OVCAR-3 ovarian, 44.2 µM with SN12C renal, 29.4 µM with SNB-19 CNS and 21.5 µM in the assay with U251 CNS. For the same molecule, the TGI in the assay with DU-145 prostate was above 100 µM; in the assay with HS 578T breast, 83.7 µM; with K-562 leukemia, above 100 µM; with MDA-MB-435 it was above 100 µM; in the assay on NCI-H226 lung, above 100 µM; in the assay with NCI/ADR-RES ovarian, above 100 µM. For the same molecule, the TGI with OVCAR-3 ovarian is above 100 µM; with SN12C renal it was above 100 µM; with SNB-19 CNS, above 100 µM; in the assay on U251 CNS it was 56.6 µM.
For `COC(=O)c1cc2oc(/C=C3\SC(=S)N(NC(C)=O)C3=O)cc2n1Cc1ccccc1`, the GI50 was 1.7 µM in the assay with DU-145 prostate; 6.61 µM in the assay on HS 578T breast; 1.08 µM in the assay with K-562 leukemia; 1.1 µM in the assay on MDA-MB-435; 9.72 µM with NCI-H226 lung; 7.77 µM with NCI/ADR-RES ovarian. The GI50 was 0.53 µM in the assay with OVCAR-3 ovarian, 11.3 µM with SN12C renal, 6.8 µM in the assay on SNB-19 CNS and 1.37 µM in the assay with U251 CNS. For the same molecule, the TGI with DU-145 prostate was 9.85 µM; in the assay on HS 578T breast, above 50 µM; in the assay on K-562 leukemia, above 50 µM; in the assay on MDA-MB-435, 4.02 µM; in the assay with NCI-H226 lung, 22.4 µM; with NCI/ADR-RES ovarian it was 19.5 µM. Moreover, the TGI with OVCAR-3 ovarian came to 2.66 µM; in the assay with SN12C renal, 20.8 µM; in the assay on SNB-19 CNS it was 21.2 µM; in the assay with U251 CNS it was 4.49 µM.
With `COC(=O)[C@@]1(O)C[C@H]2O[C@]1(C)n1c3ccccc3c3c4c(c5c6ccccc6n2c5c31)C(=O)NC4`, the GI50 was 0.161 µM in the assay with DU-145 prostate; 0.248 µM in the assay on HS 578T breast; 0.0397 µM in the assay with K-562 leukemia; 0.0745 µM in the assay on MDA-MB-435; 0.32 µM with NCI-H226 lung; 0.415 µM in the assay with NCI/ADR-RES ovarian. Besides, the GI50 was 0.587 µM with OVCAR-3 ovarian, 0.074 µM in the assay with SN12C renal, 1.1 µM in the assay with SNB-19 CNS and 1.02 µM with U251 CNS. In addition, the TGI in the assay with DU-145 prostate worked out at 5.9 µM; with HS 578T breast it was 2.06 µM; in the assay on K-562 leukemia, 1.28 µM; in the assay on MDA-MB-435, 1.6 µM; in the assay on NCI-H226 lung it was 1.72 µM; in the assay with NCI/ADR-RES ovarian, 3.56 µM. Moreover, the TGI in the assay on OVCAR-3 ovarian is 3.22 µM; in the assay with SN12C renal, 2.15 µM; in the assay on SNB-19 CNS, 4.05 µM; in the assay with U251 CNS it was 3.05 µM.
On to `CCOC1C=CCCO1` (stereo unspecified), for which the TGI in the assay on DU-145 prostate, in the assay on HS 578T breast, in the assay with K-562 leukemia, in the assay with MDA-MB-435, in the assay on NCI-H226 lung and with NCI/ADR-RES ovarian was above 100 µM throughout. The TGI in the assay on OVCAR-3 ovarian, with SN12C renal and with SNB-19 CNS was above 100 µM throughout.
